Data: ChEMBL document CHEMBL6109153, “Development of Membrane-Targeting Osthole Derivatives Containing Pyridinium Quaternary Ammonium Moieties with Potent Anti-Methicillin-Resistant Staphylococcus aureus Properties” (J Med Chem, 2025)
Converted amounts (≈) assume the structure as drawn.

Experiments:
[1] = test system: Staphylococcus aureus; experiment: Antibacterial activity against methicillin-resistant Staphylococcus aureus M23 incubated for 16 to 20 hrs by broth microdilution method; format: functional; settings: time 16-20 hrs
[2] = test system: Staphylococcus aureus; experiment: Antibacterial activity against methicillin-resistant Staphylococcus aureus M21 incubated for 16 to 20 hrs by broth microdilution method; format: functional; settings: time 16-20 hrs
[3] = test system: Staphylococcus aureus; experiment: Antibacterial activity against methicillin-resistant Staphylococcus aureus M13 incubated for 16 to 20 hrs by broth microdilution method; format: functional; settings: time 16-20 hrs
[4] = Hemolytic activity against sheep erythrocytes; format: toxicity, cell-based, Ovis aries, Erythrocyte
[5] = test system: Staphylococcus aureus; experiment: Antibacterial activity against methicillin-resistant Staphylococcus aureus M11 incubated for 16 to 20 hrs by broth microdilution method; format: functional; settings: time 16-20 hrs
[6] = test system: Staphylococcus aureus; experiment: Antibacterial activity against methicillin-resistant Staphylococcus aureus M14 incubated for 16 to 20 hrs by broth microdilution method; format: functional; settings: time 16-20 hrs
[7] = test system: Staphylococcus aureus; experiment: Antibacterial activity against methicillin-resistant Staphylococcus aureus M17 incubated for 16 to 20 hrs by broth microdilution method; format: functional; settings: time 16-20 hrs
[8] = test system: Staphylococcus aureus; experiment: Antibacterial activity against methicillin-resistant Staphylococcus aureus M12 incubated for 16 to 20 hrs by broth microdilution method; format: functional; settings: time 16-20 hrs
[9] = test system: Staphylococcus aureus; experiment: Antibacterial activity against methicillin-resistant Staphylococcus aureus M22 incubated for 16 to 20 hrs by broth microdilution method; format: functional; settings: time 16-20 hrs
[10] = test system: Staphylococcus aureus; experiment: Antibacterial activity against methicillin-resistant Staphylococcus aureus M20 incubated for 16 to 20 hrs by broth microdilution method; format: functional; settings: time 16-20 hrs
[11] = test system: Staphylococcus aureus; experiment: Antibacterial activity against Staphylococcus aureus ATCC 29213 incubated for 16 to 20 hrs by broth microdilution method; format: functional; settings: time 16-20 hrs
[12] = test system: Staphylococcus aureus; experiment: Antibacterial activity against methicillin-resistant Staphylococcus aureus M16 incubated for 16 to 20 hrs by broth microdilution method; format: functional; settings: time 16-20 hrs
[13] = test system: Escherichia coli; experiment: Antibacterial activity against Escherichia coli ATCC 25922 incubated for 16 to 20 hrs by broth microdilution method; format: functional; settings: time 16-20 hrs

SMILES | MIC [1] | MIC [2] | MIC [3] | HC50 [4] | MIC [5] | MIC [6] | MIC [7] | MIC [8] | MIC [9] | MIC [10] | MIC [11] | MIC [12] | MIC [13]
CC(C)=CCc1c(OCCCCCSc2cc[n+](CC(=O)N3CCOCC3)cc2)ccc2ccc(=O)oc12.[Br-] | 32 µg/mL | 32 µg/mL | 64 µg/mL | > 160 µg/mL | 16 µg/mL | 16 µg/mL | 32 µg/mL | 32 µg/mL | 32 µg/mL | 16 µg/mL | 32 µg/mL | 16 µg/mL | > 128 µg/mL
CCCCCCNC(=O)C[n+]1ccc(SCCCOc2ccc3ccc(=O)oc3c2CC=C(C)C)cc1.[Br-] | 2 µg/mL | 4 µg/mL | 4 µg/mL | > 160 µg/mL | 2 µg/mL | 2 µg/mL | 4 µg/mL | 4 µg/mL | 4 µg/mL | 2 µg/mL | 1 µg/mL | 4 µg/mL | 64 µg/mL
CCCCNC(=O)C[n+]1ccc(SCCCCOc2ccc3ccc(=O)oc3c2CC=C(C)C)cc1.[Br-] | 4 µg/mL | 4 µg/mL | 4 µg/mL | > 160 µg/mL | 2 µg/mL | 2 µg/mL | 4 µg/mL | 4 µg/mL | 4 µg/mL | 2 µg/mL | 8 µg/mL | 2 µg/mL | > 128 µg/mL
CCCNC(=O)C[n+]1ccc(SCCCOc2ccc3ccc(=O)oc3c2CC=C(C)C)cc1.[Br-] | 8 µg/mL | 8 µg/mL | 32 µg/mL | > 160 µg/mL | 8 µg/mL | 8 µg/mL | 16 µg/mL | 16 µg/mL | 8 µg/mL | 8 µg/mL | 8 µg/mL | 8 µg/mL | > 128 µg/mL
CCCN(CCC)C(=O)C[n+]1ccc(SCCCOc2ccc3ccc(=O)oc3c2CC=C(C)C)cc1.[Br-] | 8 µg/mL | 8 µg/mL | 16 µg/mL | > 160 µg/mL | 4 µg/mL | 8 µg/mL | 8 µg/mL | 16 µg/mL | 8 µg/mL | 4 µg/mL | 4 µg/mL | 8 µg/mL | 128 µg/mL
CC(C)=CCc1c(OCCCCSc2cc[n+](CC(=O)N(C)c3ccccc3)cc2)ccc2ccc(=O)oc12.[Br-] | 16 µg/mL | 8 µg/mL | 8 µg/mL | > 160 µg/mL | 2 µg/mL | 4 µg/mL | 16 µg/mL | 8 µg/mL | 8 µg/mL | 2 µg/mL | 4 µg/mL | 4 µg/mL | > 128 µg/mL
CCCCNC(=O)C[n+]1ccc(SCCCOc2ccc3ccc(=O)oc3c2CC=C(C)C)cc1.[Br-] | 8 µg/mL | 4 µg/mL | 8 µg/mL | > 160 µg/mL | 4 µg/mL | 4 µg/mL | 8 µg/mL | 8 µg/mL | 4 µg/mL | 4 µg/mL | 2 µg/mL | 4 µg/mL | > 128 µg/mL
CC(C)=CCc1c(OCCCSc2cc[n+](CC(=O)N(C)c3ccccc3)cc2)ccc2ccc(=O)oc12.[Br-] | 8 µg/mL | 8 µg/mL | 16 µg/mL | > 160 µg/mL | 4 µg/mL | 4 µg/mL | 8 µg/mL | 16 µg/mL | 8 µg/mL | 4 µg/mL | 8 µg/mL | 8 µg/mL | > 128 µg/mL
CCCCCNC(=O)C[n+]1ccc(SCCCCOc2ccc3ccc(=O)oc3c2CC=C(C)C)cc1.[Br-] | 1 µg/mL | 4 µg/mL | 4 µg/mL | > 160 µg/mL | 2 µg/mL | 1 µg/mL | 2 µg/mL | 4 µg/mL | 4 µg/mL | 1 µg/mL | 4 µg/mL | 2 µg/mL | > 128 µg/mL
CCCCN(CCCC)C(=O)C[n+]1ccc(SCCCCCOc2ccc3ccc(=O)oc3c2CC=C(C)C)cc1.[Br-] | 1 µg/mL | 1 µg/mL | 1 µg/mL | > 160 µg/mL | 0.5 µg/mL | 0.5 µg/mL | 2 µg/mL | 1 µg/mL | 1 µg/mL | 0.5 µg/mL | 1 µg/mL | 1 µg/mL | > 128 µg/mL
CC(C)=CCc1c(OCCCCCSc2cc[n+](CC(=O)N(CC(C)C)CC(C)C)cc2)ccc2ccc(=O)oc12.[Br-] | 8 µg/mL | 2 µg/mL | 8 µg/mL | > 160 µg/mL | 8 µg/mL | 8 µg/mL | 2 µg/mL | 8 µg/mL | 2 µg/mL | 8 µg/mL | 1 µg/mL | 16 µg/mL | > 128 µg/mL
CC(C)=CCc1c(OCCCCCSc2cc[n+](CC(=O)N(C)c3ccccc3)cc2)ccc2ccc(=O)oc12.[Br-] | 2 µg/mL | 4 µg/mL | 4 µg/mL | > 160 µg/mL | 2 µg/mL | 2 µg/mL | 8 µg/mL | 4 µg/mL | 4 µg/mL | 2 µg/mL | 2 µg/mL | 2 µg/mL | > 128 µg/mL
COc1ccc2ccc(=O)oc2c1CC=C(C)C [OSTHOLE] | > 64 µg/mL | > 64 µg/mL | > 64 µg/mL | > 80 µg/mL | > 64 µg/mL | 64 µg/mL (≈ 262 µM) | 64 µg/mL (≈ 262 µM) | 64 µg/mL (≈ 262 µM) | 64 µg/mL (≈ 262 µM) | 64 µg/mL (≈ 262 µM) | > 64 µg/mL | 64 µg/mL (≈ 262 µM) | > 64 µg/mL
CCCCN(CCCC)C(=O)C[n+]1ccc(SCCCCOc2ccc3ccc(=O)oc3c2CC=C(C)C)cc1.[Br-] | 0.5 µg/mL | 0.5 µg/mL | 2 µg/mL | > 160 µg/mL | 1 µg/mL | 1 µg/mL | 1 µg/mL | 2 µg/mL | 0.5 µg/mL | 0.5 µg/mL | 1 µg/mL | 1 µg/mL | > 128 µg/mL
CC(C)=CCc1c(OCCCSc2cc[n+](CC(=O)N3CCOCC3)cc2)ccc2ccc(=O)oc12.[Br-] | 128 µg/mL | 32 µg/mL | 128 µg/mL | > 160 µg/mL | 32 µg/mL | 64 µg/mL | 64 µg/mL | 128 µg/mL | 32 µg/mL | 64 µg/mL | 128 µg/mL | 64 µg/mL | > 128 µg/mL
CC(C)=CCc1c(OCCCSc2cc[n+](CC(=O)N(C(C)C)C(C)C)cc2)ccc2ccc(=O)oc12.[Br-] | 4 µg/mL | 4 µg/mL | 8 µg/mL | > 160 µg/mL | 2 µg/mL | 2 µg/mL | 4 µg/mL | 8 µg/mL | 4 µg/mL | 2 µg/mL | 4 µg/mL | 4 µg/mL | > 128 µg/mL
CC(C)=CCc1c(OCCCCCSc2cc[n+](CC(=O)N(C(C)C)C(C)C)cc2)ccc2ccc(=O)oc12.[Br-] | 2 µg/mL | 2 µg/mL | 4 µg/mL | > 160 µg/mL | 1 µg/mL | 2 µg/mL | 2 µg/mL | 4 µg/mL | 2 µg/mL | 2 µg/mL | 2 µg/mL | 4 µg/mL | > 128 µg/mL
CCCCN(CCCC)C(=O)C[n+]1ccc(SCCCOc2ccc3ccc(=O)oc3c2CC=C(C)C)cc1.[Br-] | 2 µg/mL | 2 µg/mL | 4 µg/mL | > 160 µg/mL | 1 µg/mL | 1 µg/mL | 1 µg/mL | 4 µg/mL | 2 µg/mL | 1 µg/mL | 1 µg/mL | 2 µg/mL | > 128 µg/mL
CCCN(CCC)C(=O)C[n+]1ccc(SCCCCOc2ccc3ccc(=O)oc3c2CC=C(C)C)cc1.[Br-] | 2 µg/mL | 2 µg/mL | 8 µg/mL | > 160 µg/mL | 2 µg/mL | 2 µg/mL | 2 µg/mL | 4 µg/mL | 2 µg/mL | 1 µg/mL | 2 µg/mL | 2 µg/mL | > 128 µg/mL
C[C@@H](O)[C@H]1C(=O)N2C(C(=O)O)=C(S[C@@H]3CN[C@H](C(=O)N(C)C)C3)[C@H](C)[C@H]12 [MEROPENEM] | – | – | – | – | – | – | – | – | – | – | – | – | 0.063 µg/mL (≈ 0.164 µM)
CCCCNC(=O)C[n+]1ccc(SCCCCCOc2ccc3ccc(=O)oc3c2CC=C(C)C)cc1.[Br-] | 2 µg/mL | 1 µg/mL | 2 µg/mL | > 160 µg/mL | 1 µg/mL | 1 µg/mL | 2 µg/mL | 2 µg/mL | 1 µg/mL | 1 µg/mL | 2 µg/mL | 2 µg/mL | > 128 µg/mL
CCCCCNC(=O)C[n+]1ccc(SCCCOc2ccc3ccc(=O)oc3c2CC=C(C)C)cc1.[Br-] | 8 µg/mL | 2 µg/mL | 8 µg/mL | > 160 µg/mL | 2 µg/mL | 2 µg/mL | 2 µg/mL | 4 µg/mL | 2 µg/mL | 2 µg/mL | 2 µg/mL | 4 µg/mL | 64 µg/mL
CCCNC(=O)C[n+]1ccc(SCCCCCOc2ccc3ccc(=O)oc3c2CC=C(C)C)cc1.[Br-] | 4 µg/mL | 8 µg/mL | 8 µg/mL | 190 µg/mL | 2 µg/mL | 2 µg/mL | 8 µg/mL | 8 µg/mL | 8 µg/mL | 2 µg/mL | 2 µg/mL | 2 µg/mL | > 128 µg/mL
